According to patent US5234917A, “Substituted 5-(alkyl)carboxamide imidazoles” (priority 1990, dated 1993):

Test system: pressor response to exogenous angiotensin II
Test: Inhibition of Pressor Response to Angiotensin II in Conscious Rats
Type: in vivo
Details: Rattus norvegicus, mean arterial pressure, 250 mg/kg angiotensin II i.v. as printed, compounds given intravenously or orally at 3 to 300 mg/kg (route not given), read-out: IC50 (dose of compound needed to produce 50% inhibition of the control pressor response to angiotensin II)
Experimental: Angiotensin II antagonist activity of the compounds of Formula (I) is assessed by in vitro and in vivo methods. In vitro antagonist activity is determined by the ability of the compounds to compete with ^125 I-angiotensin II for binding to vascular angiotensin II receptors and by their ability to antagonize the contractile response to angiotensin II in the isolated rabbit aorta. In vivo activity is evaluated by the efficacy of the compounds to inhibit- the pressor response to exogenous angiotensin II in conscious rats and to lower blood pressure in a rat model of renin dependent hypertension.
Rats are prepared with indwelling femoral arterial and venous catheters and a stomach tube (Gellai et al., Kidney Int. 15:419, 1979). Two to three days following surgery the rats are placed in a restrainer and blood pressure is continuously monitored from the arterial catheter with a pressure transducer and recorded on a polygraph. The change in mean arterial pressure in response to intravenous injections of […] angiotensin II is compared at various time points prior to and following the administration of the compounds intravenously or orally at doses of 3 to 300 mg/kg. The dose of compound needed to produce 50% inhibition of the control response to angiotensin II (IC50) is used to estimate the potency of the compounds.

Compound `CCCCc1ncc(CC(=O)N[C@@H](Cc2ccccc2)C(=O)O)n1Cc1ccccc1Cl` [Example 14, N-[{2-n-Butyl-1-(2-chlorophenyl)methyl-1H-imidazol-5-yl}methylcarbonyl]-L-phenylalanine] has an ED50 of 16 mg/kg.
